In patent US6586606B2, “Process for the preparation of 3-aryl-benzofuran-2-ones” (Ciba Specialty Chemicals Corporation, priority 2000, dated 2003):

What was measured:
[1] = Stabilisation of polyethylene in permanent contact with water (extraction test, oxidation induction time); details: 0.05% compound (302) with 0.10% Irganox 1010, 0.05% Irgafos, 0.10% calcium stearate in PE-HD; deionised water, 50 days at 80° C.
Experimental: Stabilisation of polyethylene which is in permanent contact with water.
0.10% by weight of calcium stearate and a stabilizer mixture comprising 0.10% by weight of Irganox®1010 (pentaerythritol tetrakis[3-(3,5-di-tert-butyl-4-hydroxyphenyl)propionate]), 0.05% by weight of Irgafos®68 (tris(2,4-di-tert-butylphenyl)phosphite) and 0.05% by weight of compound (302) (Table 3) is added dry to a polyethylene polymer (Hostalene® CRP 100; PE-HD) taken direct from a reactor and are incorporated therein in a Pappenmaier mixer (type 20) within 2 minutes.
In an extruder, of Schwabenthan, the stabilized polyethylene is homogenised and processed to granulate. For the extraction tests in water, 200 mm by 150 mm by 2 mm test plates are pressed from the granulate of the individual formulations using a table press. To ease the demoulding of the test plates, the pressing process is carried out between two aluminium foils. […]
The test plates are subjected to the above test conditions for 50 days at 80° C. Upon termination of the extraction test, the residual stabilizer content and the oxidation induction time of the test plates are determined.
The residual content of sterically hindered phenol, Irganox®1010, is determined using an internal standard in an HPLC appliance of the Spectra Physics SP 8800 type, equipped with autosampler and UV/VIS detector of the Spectra 200 type. […]

| melting point | stability of polyolefins in permanent contact with extracting media [1] | SMILES |
| --- | --- | --- |
| 116 to 119 °C |  | CC(C)(C)c1cc2c(c(C(C)(C)C)c1)OC(=O)C2c1ccccc1 (centres unmarked) [(101), 5,7-di-tert-butyl-3-phenyl-3H-benzofuran-2-one] |
| 172 to 174 °C |  | COc1ccc(-c2c(N)oc3c(C(C)(C)C)cc(C(C)(C)C)cc23)cc1OC [(303), 2-amino-5,7-di-tert-butyl-3-(3,4-dimethoxyphenyl)-benzofurane] |
| 174 to 178 °C |  | CC(C)(C)c1cc(C(C)(C)C)c2oc(N)c(-c3ccccc3)c2c1 [Compound (301), 2-amino-3-phenyl-5,7-di-tert-butyl-benzofurane] |
| 128 to 130 °C | improved | Cc1ccc(-c2c(N)oc3c(C(C)(C)C)cc(C(C)(C)C)cc23)cc1C [Compound (302), 2-amino-5,7-di-tert-butyl-3-(3,4-dimethylphenyl)-benzofurane] |
